Source: patent publication US6894046B2, “IL-5 inhibiting 6-azauracil derivatives” (Janssen Pharmaceutica N.V., priority 1998, dated 2005)

Each compound was assayed on IL-5 production in human blood (assay: In vitro inhibition of IL-5 production in human blood (phytohemagglutinin-stimulated whole blood, ELISA)). Details: test dose 1×10^−6 M, phytohemagglutinin 2 μg/ml, 48 hours.
Type: cell-based
Protocol: EXAMPLE C.1: IN VITRO INHIBITION OF IL-5 PRODUCTION IN HUMAN BLOOD
Peripheral blood from healthy male donors was drawn into heparinized syringes (12.5 U heparin/ml). Blood samples were three-fold diluted in RMPI 1640 medium (Life Technologies, Belgium) supplemented with 2 mM L-glutamine, 100 U/ml penicillin and 100 μg/ml streptomycin, and 300 μl fractions were distributed in 24-well multidisc plates. Blood samples were preincubated (60 minutes at 37° C.) in a humidified 6% CO2-atmosphere with 100 μl of drug solvent (final concentration 0.02% dimethylsulfoxide in RPMI 1640) or with 100 μl of an appropriate dose of test compound before being stimulated by the addition of 100 μl of phytohemagglutinin HA17 (Murex, UK) at a final concentration of 2 μg/ml. After 48 hours, cell-free supernatant fluids were collected by centrifugation and stored at −70° C. until tested for the presence of IL-5.
IL-5 measurements were conducted as described in Van Wauwe et al. (1996, Inflamm Res, 45, 357-363) on page 358 using ELISA.
Table 6 lists the percentage inhibition of IL-5 production (column “% inh”) at a test dose of 1×10^−6 M, or in case the percentage inhibition is marked with an “*” 1×10^−5 M, for the compounds of the present invention.
CCOC(=O)c1sc(C(C)(C)c2c(Cl)cc(-n3ncc(=O)[nH]c3=O)cc2Cl)nc1-c1ccccc1 [Compound 6] was tested, and the “% inh. (percentage inhibition of IL-5 production)” value was 94%. In the case of CC(C)(c1nc(-c2ccccc2)c(N2CCOCC2)s1)c1c(Cl)cc(-n2ncc(=O)[nH]c2=O)cc1Cl [Compound 14], the “% inh. (percentage inhibition of IL-5 production)” value is reported as 78%. With CC(C)(c1nc(-c2cccc(Cl)c2)cs1)c1c(Cl)cc(-n2ncc(=O)[nH]c2=O)cc1Cl [Compound 8] the “% inh. (percentage inhibition of IL-5 production)” value was 85%. For CC(C)(c1nc(-c2ccccc2)c(C(=O)O)s1)c1c(Cl)cc(-n2ncc(=O)[nH]c2=O)cc1Cl [Compound 117], the “% inh. (percentage inhibition of IL-5 production)” value was −7%. In the case of CC(C)(c1nc(-c2ccc(F)cc2F)cs1)c1c(Cl)cc(-n2ncc(=O)[nH]c2=O)cc1Cl [Compound 18], the “% inh. (percentage inhibition of IL-5 production)” value is reported as 91%. In the case of COc1ccccc1-c1csc(C(C)(C)c2c(Cl)cc(-n3ncc(=O)[nH]c3=O)cc2Cl)n1 [Compound 26], the “% inh. (percentage inhibition of IL-5 production)” value is reported as 84%. CC(C)(c1nc(-c2ccccc2Cl)c(C=O)s1)c1c(Cl)cc(-n2ncc(=O)[nH]c2=O)cc1Cl [Compound 46] was tested, and the “% inh. (percentage inhibition of IL-5 production)” value was 44%. With COC(=O)c1cccc(-c2nc(C(C)(C)c3c(Cl)cc(-n4ncc(=O)[nH]c4=O)cc3Cl)no2)c1 [Compound 133] the “% inh. (percentage inhibition of IL-5 production)” value was 55%. CC(C)(c1nc(-c2ccccc2)c(CCc2ccccc2)s1)c1c(Cl)cc(-n2ncc(=O)[nH]c2=O)cc1Cl [Compound 45] was tested, and the “% inh. (percentage inhibition of IL-5 production)” value was 85%. With “1′-[[2-[1-[2,6-dichloro-4-(4,5-dihydro-3,5-dioxo-1,2,4-triazin-2(3H)-yl)phenyl]-1-methylethyl-4-phenyl-5-thiazolyl]acetyl]-(1,4′-dipiperidine) [Compound 24]” the “% inh. (percentage inhibition of IL-5 production)” value was 32%. CC(C)(c1nc(-c2cccs2)c(C(=O)O)s1)c1c(Cl)cc(-n2ncc(=O)[nH]c2=O)cc1Cl [Compound 120] was tested, and the “% inh. (percentage inhibition of IL-5 production)” value was 8%. Cc1ccc(-c2csc(C(C)(C)c3c(Cl)cc(-n4ncc(=O)[nH]c4=O)cc3Cl)n2)s1 [Compound 76] was tested, and the “% inh. (percentage inhibition of IL-5 production)” value was 75%. CC(C)(c1nc(-c2cccc(Cl)c2)c(-c2ccccc2)s1)c1c(Cl)cc(-n2ncc(=O)[nH]c2=O)cc1Cl [Compound 37] was tested, and the “% inh. (percentage inhibition of IL-5 production)” value was 92%. For Cc1ccccc1-c1nc(C(C)(C)c2c(Cl)cc(-n3ncc(=O)[nH]c3=O)cc2Cl)sc1-c1ccccc1 [Compound 38], the “% inh. (percentage inhibition of IL-5 production)” value was 93%. For CC(C)(c1noc(-c2cccc(F)c2)n1)c1c(Cl)cc(-n2ncc(=O)[nH]c2=O)cc1Cl [Compound 90], the “% inh. (percentage inhibition of IL-5 production)” value was 91%. With CC(C)(c1noc(-c2cccc(CO)c2)n1)c1c(Cl)cc(-n2ncc(=O)[nH]c2=O)cc1Cl [Compound 127] the “% inh. (percentage inhibition of IL-5 production)” value was 67%. For CN(C)Cc1sc(C(C)(C)c2c(Cl)cc(-n3ncc(=O)[nH]c3=O)cc2Cl)nc1-c1ccccc1.Cl [Compound 2], the “% inh. (percentage inhibition of IL-5 production)” value was 92%. For CC(C)(c1nc(-c2c(F)cccc2F)cs1)c1c(Cl)cc(-n2ncc(=O)[nH]c2=O)cc1Cl [Compound 13], the “% inh. (percentage inhibition of IL-5 production)” value was 75%. For CC(C)(c1noc(-c2cccs2)n1)c1c(Cl)cc(-n2ncc(=O)[nH]c2=O)cc1Cl [Compound 92], the “% inh. (percentage inhibition of IL-5 production)” value was 80%. For Cc1sc(C(C)(C)c2c(Cl)cc(-n3ncc(=O)[nH]c3=O)cc2Cl)nc1-c1ccccc1 [Compound 10], the “% inh. (percentage inhibition of IL-5 production)” value was 85%. With COc1cccc(-c2sc(C(C)(C)c3c(Cl)cc(-n4ncc(=O)[nH]c4=O)cc3Cl)nc2-c2ccccc2)c1 [Compound 55] the “% inh. (percentage inhibition of IL-5 production)” value was 92%.

Same assay, conditions: test dose 1×10^−6 M, phytohemagglutinin 2 μg/ml, 48 hours, read-out: % inh. (percentage inhibition of IL-5 production)
CC(C)(c1cc(Cl)c(-n2ncc(=O)[nH]c2=O)c(Cl)c1)c1nc(-c2ccccc2Cl)c(-c2cccc(C(N)=O)c2)s1 [Compound 62, 3-[2-[1-[3,5-dichloro-4-(4,5-dihydro-3,5-dioxo-1,2,4-triazin-2(3H)-yl)phenyl]-1-methylethyl]-4-(2-chlorophenyl)-5-thiazolyl]benzamide] was tested, and the inhibition at 1 µM was 53%. With Cc1sc(C(C)(C)c2c(Cl)cc(-n3ncc(=O)[nH]c3=O)cc2Cl)nc1-c1cccc(Cl)c1 [Compound 3, 2-[3,5-di-chloro-4-[1-[4-(3-chlorophenyl)-5-methyl-2-thiazolyl]-1-methylethyl]phenyl]-1,2,4-triazine-3,5(2H,4H)-dione] the inhibition at 1 µM was 92%. Work on CC(C)(c1noc(-c2cccnc2)n1)c1c(Cl)cc(-n2ncc(=O)[nH]c2=O)cc1Cl [Compound 124, 2-[3,5-dichloro-4-[1-methyl-1-[5-(3-pyridinyl)-1,2,4-oxadiazol-3-yl]ethyl]phenyl]-1,2,4-triazine-3,5(2H,4H)-dione] yielded an inhibition at 1 µM of 86%. Work on CC(C)(c1nc(-c2ccccc2)c(-c2cccc(NC(N)=O)c2)s1)c1c(Cl)cc(-n2ncc(=O)[nH]c2=O)cc1Cl [Compound 54, N-[3-[2-[1-[2,6-dichloro-4-(4,5-dihydro-3,5-dioxo-1,2,4-triazin-2(3H)-yl)phenyl]-1-methylethyl]-4-phenyl-5-thiazolyl]phenyl]urea] yielded an inhibition at 1 µM of 61%. CC(C)(c1nc(-c2ccccc2)c(C(O)c2ccccc2)s1)c1c(Cl)cc(-n2ncc(=O)[nH]c2=O)cc1Cl (racemic) [Compound 29, (±)-2-[3,5-dichloro-4-[1-[5-(hydroxyphenylmethyl)4-phenyl-2-thiazolyl]-1-methyl-ethyl]phenyl]-1,2,4-triazin-3,5(2H,4H)-dione] gave an inhibition at 1 µM of 71%. Work on COCCN1CCN(Cc2sc(C(C)(C)c3c(Cl)cc(-n4ncc(=O)[nH]c4=O)cc3Cl)nc2-c2ccccc2)CC1 [Compound 42, 2-[3,5-dichloro-4-[1-[5-[[4-(2-methoxyethyl)-1-piperazinyl]methyl]-4-phenyl-2-thiazolyl]-1-methylethyl]phenyl]-1,2,4-triazine-3,5(2H,4H)-dione] yielded an inhibition at 1 µM of 26%.
